{
  "source": "ChEMBL document CHEMBL5653631",
  "about": "“A Potent and Selective ULK1 Inhibitor Suppresses Autophagy and Sensitizes Cancer Cells to Nutrient Stress” (iScience, 2018)",
  "key": {"[1]": {"biological_target": "T1, Discoidin domain-containing receptor 2 (Homo sapiens) (UniProt Q16832)", "T1 sequence (whole entry)": "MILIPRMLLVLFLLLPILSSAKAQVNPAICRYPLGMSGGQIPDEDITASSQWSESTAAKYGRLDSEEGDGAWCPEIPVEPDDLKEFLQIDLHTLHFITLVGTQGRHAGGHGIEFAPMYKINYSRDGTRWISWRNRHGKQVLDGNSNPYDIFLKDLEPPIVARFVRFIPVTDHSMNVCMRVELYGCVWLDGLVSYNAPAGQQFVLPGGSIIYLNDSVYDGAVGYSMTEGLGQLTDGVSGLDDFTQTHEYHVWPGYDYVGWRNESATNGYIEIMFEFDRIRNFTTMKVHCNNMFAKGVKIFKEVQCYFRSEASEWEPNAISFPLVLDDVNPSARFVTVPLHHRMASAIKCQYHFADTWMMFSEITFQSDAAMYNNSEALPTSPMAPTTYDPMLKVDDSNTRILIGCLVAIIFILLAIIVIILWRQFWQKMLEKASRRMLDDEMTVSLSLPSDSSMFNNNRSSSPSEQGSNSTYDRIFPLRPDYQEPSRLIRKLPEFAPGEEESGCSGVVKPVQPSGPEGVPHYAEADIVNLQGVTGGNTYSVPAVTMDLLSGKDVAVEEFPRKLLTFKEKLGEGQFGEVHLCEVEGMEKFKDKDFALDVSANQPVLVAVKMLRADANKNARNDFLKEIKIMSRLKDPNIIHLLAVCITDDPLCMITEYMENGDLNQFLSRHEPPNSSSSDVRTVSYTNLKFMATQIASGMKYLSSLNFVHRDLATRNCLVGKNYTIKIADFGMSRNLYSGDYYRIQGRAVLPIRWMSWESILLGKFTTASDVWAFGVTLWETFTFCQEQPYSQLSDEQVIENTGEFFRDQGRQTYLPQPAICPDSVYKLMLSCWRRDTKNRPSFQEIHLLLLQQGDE", "assay": "Inhibition of human recombinant DDR2 at 40 nM related to control ULK1"}, "[2]": {"biological_target": "T2, NUAK family SNF1-like kinase 1 (Homo sapiens) (UniProt O60285)", "T2 sequence (whole entry)": "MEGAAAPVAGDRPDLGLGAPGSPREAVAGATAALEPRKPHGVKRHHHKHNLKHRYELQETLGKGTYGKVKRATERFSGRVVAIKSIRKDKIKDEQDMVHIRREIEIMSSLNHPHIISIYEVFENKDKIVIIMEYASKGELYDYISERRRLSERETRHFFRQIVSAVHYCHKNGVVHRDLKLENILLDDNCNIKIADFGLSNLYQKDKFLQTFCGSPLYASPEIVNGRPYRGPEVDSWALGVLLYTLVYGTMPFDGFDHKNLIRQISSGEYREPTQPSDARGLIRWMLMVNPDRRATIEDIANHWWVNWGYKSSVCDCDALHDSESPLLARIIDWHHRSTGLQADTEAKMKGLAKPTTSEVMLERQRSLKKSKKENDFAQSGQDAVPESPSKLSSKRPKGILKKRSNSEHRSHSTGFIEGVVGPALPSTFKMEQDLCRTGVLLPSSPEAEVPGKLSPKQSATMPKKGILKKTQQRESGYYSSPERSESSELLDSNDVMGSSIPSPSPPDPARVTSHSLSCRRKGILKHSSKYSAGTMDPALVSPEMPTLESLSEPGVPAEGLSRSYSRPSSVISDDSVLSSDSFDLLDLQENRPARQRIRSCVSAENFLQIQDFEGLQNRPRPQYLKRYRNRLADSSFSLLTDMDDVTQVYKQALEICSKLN", "assay": "Inhibition of human recombinant NuaK1 at 15 nM in presence of ATP by radiometric assay relative to control"}, "[3]": {"biological_target": "Serine/threonine-protein kinase WNK1 (Homo sapiens) (UniProt Q9H4A3)", "sequence (Q9H4A3 whole entry, looked up)": "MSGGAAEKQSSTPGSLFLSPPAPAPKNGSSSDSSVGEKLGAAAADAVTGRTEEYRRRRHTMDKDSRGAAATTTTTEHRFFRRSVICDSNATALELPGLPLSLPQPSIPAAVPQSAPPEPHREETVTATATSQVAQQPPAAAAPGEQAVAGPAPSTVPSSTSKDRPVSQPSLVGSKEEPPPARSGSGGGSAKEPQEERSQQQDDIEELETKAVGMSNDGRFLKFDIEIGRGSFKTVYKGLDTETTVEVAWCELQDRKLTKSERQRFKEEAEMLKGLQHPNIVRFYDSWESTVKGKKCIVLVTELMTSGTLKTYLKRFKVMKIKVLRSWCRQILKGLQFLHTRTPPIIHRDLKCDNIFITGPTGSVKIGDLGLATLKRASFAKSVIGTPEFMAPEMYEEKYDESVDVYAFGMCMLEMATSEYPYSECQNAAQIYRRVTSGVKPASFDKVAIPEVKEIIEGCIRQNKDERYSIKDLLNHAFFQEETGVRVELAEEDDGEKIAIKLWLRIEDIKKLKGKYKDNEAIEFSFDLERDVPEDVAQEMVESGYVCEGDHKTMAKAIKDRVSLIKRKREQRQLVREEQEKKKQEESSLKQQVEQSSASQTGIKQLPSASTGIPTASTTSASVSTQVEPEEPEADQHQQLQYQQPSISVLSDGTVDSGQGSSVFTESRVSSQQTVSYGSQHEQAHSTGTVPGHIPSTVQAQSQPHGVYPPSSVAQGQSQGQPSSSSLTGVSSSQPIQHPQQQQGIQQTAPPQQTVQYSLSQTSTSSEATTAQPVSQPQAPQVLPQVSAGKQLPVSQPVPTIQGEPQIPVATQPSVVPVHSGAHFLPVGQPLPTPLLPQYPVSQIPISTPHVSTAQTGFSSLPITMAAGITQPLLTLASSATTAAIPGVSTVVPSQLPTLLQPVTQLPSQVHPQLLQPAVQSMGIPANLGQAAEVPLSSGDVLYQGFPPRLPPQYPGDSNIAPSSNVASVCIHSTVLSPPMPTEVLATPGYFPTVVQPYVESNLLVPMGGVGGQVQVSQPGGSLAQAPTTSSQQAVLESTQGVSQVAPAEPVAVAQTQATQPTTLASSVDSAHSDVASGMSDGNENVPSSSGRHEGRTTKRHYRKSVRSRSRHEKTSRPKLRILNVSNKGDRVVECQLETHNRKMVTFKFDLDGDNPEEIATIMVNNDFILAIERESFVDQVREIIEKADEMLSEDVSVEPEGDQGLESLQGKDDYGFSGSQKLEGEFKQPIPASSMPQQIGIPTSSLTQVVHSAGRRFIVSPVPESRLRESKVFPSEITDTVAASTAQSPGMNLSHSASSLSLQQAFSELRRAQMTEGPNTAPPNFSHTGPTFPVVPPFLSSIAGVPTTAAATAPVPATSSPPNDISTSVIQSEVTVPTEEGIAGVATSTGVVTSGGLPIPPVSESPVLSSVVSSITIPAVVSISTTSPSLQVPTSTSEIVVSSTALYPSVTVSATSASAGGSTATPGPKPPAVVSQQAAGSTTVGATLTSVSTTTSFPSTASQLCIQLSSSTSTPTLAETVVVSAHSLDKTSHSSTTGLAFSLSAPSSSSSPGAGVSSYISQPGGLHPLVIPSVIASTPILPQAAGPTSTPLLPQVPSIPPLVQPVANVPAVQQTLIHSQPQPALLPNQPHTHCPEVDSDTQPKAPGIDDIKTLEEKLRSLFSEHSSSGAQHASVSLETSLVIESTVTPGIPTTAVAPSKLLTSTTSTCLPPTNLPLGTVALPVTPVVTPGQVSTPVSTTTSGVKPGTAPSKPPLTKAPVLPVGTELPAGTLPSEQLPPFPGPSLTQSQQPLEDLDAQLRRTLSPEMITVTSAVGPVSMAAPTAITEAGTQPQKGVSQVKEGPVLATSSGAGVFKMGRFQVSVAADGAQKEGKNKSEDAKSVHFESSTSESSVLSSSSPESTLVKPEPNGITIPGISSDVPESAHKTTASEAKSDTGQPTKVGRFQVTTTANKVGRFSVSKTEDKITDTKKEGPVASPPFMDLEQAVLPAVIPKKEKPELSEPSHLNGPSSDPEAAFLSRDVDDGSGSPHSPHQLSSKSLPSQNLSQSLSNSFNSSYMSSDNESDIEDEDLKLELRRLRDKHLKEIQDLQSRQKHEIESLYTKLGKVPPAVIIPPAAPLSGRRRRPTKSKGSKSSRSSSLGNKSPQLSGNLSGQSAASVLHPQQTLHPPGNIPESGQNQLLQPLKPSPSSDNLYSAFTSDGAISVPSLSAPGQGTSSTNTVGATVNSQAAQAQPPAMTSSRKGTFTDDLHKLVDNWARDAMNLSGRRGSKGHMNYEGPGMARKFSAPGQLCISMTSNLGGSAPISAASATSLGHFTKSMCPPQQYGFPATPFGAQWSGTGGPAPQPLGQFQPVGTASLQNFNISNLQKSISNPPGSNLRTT", "assay": "Inhibition of human recombinant Wnk1 at 15 nM in presence of ATP by radiometric assay relative to control"}, "[4]": {"biological_target": "Leucine-rich repeat serine/threonine-protein kinase 2 (Homo sapiens) (UniProt Q5S007)", "assay": "Inhibition of human recombinant LRRK2 at 15 nM related to control ULK1"}, "[5]": {"biological_target": "Serine/threonine-protein kinase WNK1 (Homo sapiens) (UniProt Q9H4A3)", "assay": "Inhibition of human recombinant Wnk1 at 15 nM related to control ULK1"}, "[6]": {"biological_target": "Tyrosine-protein kinase BTK (Homo sapiens) (UniProt Q06187)", "sequence (Q06187 whole entry)": "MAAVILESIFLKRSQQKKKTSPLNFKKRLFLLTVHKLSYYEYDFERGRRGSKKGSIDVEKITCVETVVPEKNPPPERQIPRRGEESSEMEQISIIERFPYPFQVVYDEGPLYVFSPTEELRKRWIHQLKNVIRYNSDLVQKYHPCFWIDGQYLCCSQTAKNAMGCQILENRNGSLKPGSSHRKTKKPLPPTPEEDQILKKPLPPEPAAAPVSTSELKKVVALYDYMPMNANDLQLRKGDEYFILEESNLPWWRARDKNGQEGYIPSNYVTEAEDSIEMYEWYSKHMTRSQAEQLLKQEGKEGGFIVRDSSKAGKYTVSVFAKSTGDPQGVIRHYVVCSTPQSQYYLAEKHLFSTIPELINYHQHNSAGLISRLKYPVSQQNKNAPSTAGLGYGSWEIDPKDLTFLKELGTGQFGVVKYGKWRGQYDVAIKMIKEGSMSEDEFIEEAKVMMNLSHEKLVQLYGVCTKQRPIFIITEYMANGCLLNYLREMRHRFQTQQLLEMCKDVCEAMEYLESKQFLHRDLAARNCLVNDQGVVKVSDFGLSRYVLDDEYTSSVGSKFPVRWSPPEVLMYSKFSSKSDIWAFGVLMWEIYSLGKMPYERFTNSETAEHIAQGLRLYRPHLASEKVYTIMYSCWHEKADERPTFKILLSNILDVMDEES", "assay": "Inhibition of human recombinant BTK at 500 nM in presence of ATP by radiometric assay relative to control"}, "[7]": {"biological_target": "T3, Homeodomain-interacting protein kinase 4 (Homo sapiens) (UniProt Q8NE63)", "T3 sequence (whole entry)": "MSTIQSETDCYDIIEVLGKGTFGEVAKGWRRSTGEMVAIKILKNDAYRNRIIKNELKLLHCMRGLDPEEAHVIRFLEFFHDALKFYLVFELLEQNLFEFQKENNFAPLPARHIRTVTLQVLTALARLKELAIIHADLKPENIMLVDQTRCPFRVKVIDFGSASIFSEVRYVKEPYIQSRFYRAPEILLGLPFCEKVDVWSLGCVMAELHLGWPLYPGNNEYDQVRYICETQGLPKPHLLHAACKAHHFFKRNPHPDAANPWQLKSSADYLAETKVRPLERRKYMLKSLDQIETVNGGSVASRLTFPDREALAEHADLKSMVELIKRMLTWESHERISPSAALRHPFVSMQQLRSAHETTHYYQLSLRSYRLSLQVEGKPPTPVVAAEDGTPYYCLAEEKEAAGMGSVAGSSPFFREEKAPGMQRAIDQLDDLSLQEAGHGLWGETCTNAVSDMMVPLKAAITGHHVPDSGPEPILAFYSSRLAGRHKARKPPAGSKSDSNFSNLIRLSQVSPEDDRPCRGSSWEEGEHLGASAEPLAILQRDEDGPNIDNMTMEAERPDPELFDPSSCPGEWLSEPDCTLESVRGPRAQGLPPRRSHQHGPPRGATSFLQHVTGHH", "assay": "Inhibition of human recombinant HIPK4 at 500 nM related to control ULK1"}},
  "data": [
    {"smiles": "O=C(N[C@@H](C1CC1)C(F)(F)F)c1cc(-c2cnn3cc(-c4ccc(F)cc4)cnc23)cs1", "values": [
      {"measurement": "fold change (FC)", "setting": "[1]", "result": 0}
    ]},
    {"smiles": "CC(C)[C@H](NC(=O)c1cc(-c2cnn3cc(-c4ccc(OCCN5CCCCC5)cc4)cnc23)cs1)C(F)(F)F", "values": [
      {"measurement": "inhibition", "setting": "[2]", "result": 27, "unit": "%"},
      {"measurement": "inhibition", "setting": "[3]", "result": 4, "unit": "%"},
      {"measurement": "fold change (FC)", "setting": "[4]", "result": 0.03},
      {"measurement": "fold change (FC)", "setting": "[5]", "result": 0.05}
    ]},
    {"smiles": "CNC(=O)c1ccccc1Oc1nc(Nc2cc(OC)c(OC)c(OC)c2)ncc1Br", "values": [
      {"measurement": "inhibition", "setting": "[6]", "result": 0, "unit": "%"},
      {"measurement": "fold change (FC)", "setting": "[7]", "result": 0.12}
    ]}
  ]
}
